Reference: patent publication US10428074B2, “Pyrrole heteroaryl ring derivative and method of use thereof” (Jiangsu Hengrui Medicine Co., Ltd., priority 2011, dated 2019)

Legend:
JAK1 kinase = JAK1 kinase (Homo sapiens, UniProt P23458); assay: Assay for inhibiting JAK1 kinase (in vitro kinase assay); type: biochemical; settings: 20 μM ATP; read-out: IC50 (JAK1/Bio)
Procedure: In vitro activity of compounds of the present invention for inhibiting JAK1 kinase was determined by the following method.
IC50 values of test compounds was calculated from the data of the test compounds in inhibiting the activity of JAK1 kinase at different concentrations.

T cells = assay: Proliferation inhibition assay on T cells (PBMC, anti-CD3, IL-2); type: cell-based, human; settings: Homo sapiens, T-cell, IL-2 10 ng/mL
Description: The following in vitro assay is to determine the activity of the compounds of the present invention for inhibiting the proliferation of T cells.
The activity is represented by the IC50 value.
The general procedures of the assay are given as follows: first, the PBMC cell line (purchased from Shanghai Blood Center) was centrifuged, the supernatant was removed, and the cells counted. […] Then, the cells were washed 3 times, resuspended, diluted to 2×10^6/mL, and then mixed with recombinant human IL-2 (purchased from Peprotech, Catalog Number: 200-02) to a concentration of 10 ng/mL, and cultured for another 3 days. The cells were washed again 3 times, and diluted to 5×10^5/mL. 80 μL of the cells were seeded in each well of a 96-well cell culture plate. […] To he control wells, 10 μL culture medium were added. The plate was placed in an incubator. After incubating for 1 hr, negative control wells were mixed with 10 μL of culture medium, and the rest of the wells were mixed with IL-2 to a concentration of 10 ng/mL, and incubated continuously for 72 hours. […] IC50 values were calculated from the data of inhibition rates at various concentrations of the test compounds.

JAK3 kinase = JAK3 kinase (Homo sapiens, UniProt P52333); assay: Assay for inhibiting JAK3 kinase (in vitro kinase assay); type: biochemical; settings: 20 μM ATP; read-out: IC50 (JAK3/Bio)
JAK3 kinase, sequence (P52333 whole entry, looked up): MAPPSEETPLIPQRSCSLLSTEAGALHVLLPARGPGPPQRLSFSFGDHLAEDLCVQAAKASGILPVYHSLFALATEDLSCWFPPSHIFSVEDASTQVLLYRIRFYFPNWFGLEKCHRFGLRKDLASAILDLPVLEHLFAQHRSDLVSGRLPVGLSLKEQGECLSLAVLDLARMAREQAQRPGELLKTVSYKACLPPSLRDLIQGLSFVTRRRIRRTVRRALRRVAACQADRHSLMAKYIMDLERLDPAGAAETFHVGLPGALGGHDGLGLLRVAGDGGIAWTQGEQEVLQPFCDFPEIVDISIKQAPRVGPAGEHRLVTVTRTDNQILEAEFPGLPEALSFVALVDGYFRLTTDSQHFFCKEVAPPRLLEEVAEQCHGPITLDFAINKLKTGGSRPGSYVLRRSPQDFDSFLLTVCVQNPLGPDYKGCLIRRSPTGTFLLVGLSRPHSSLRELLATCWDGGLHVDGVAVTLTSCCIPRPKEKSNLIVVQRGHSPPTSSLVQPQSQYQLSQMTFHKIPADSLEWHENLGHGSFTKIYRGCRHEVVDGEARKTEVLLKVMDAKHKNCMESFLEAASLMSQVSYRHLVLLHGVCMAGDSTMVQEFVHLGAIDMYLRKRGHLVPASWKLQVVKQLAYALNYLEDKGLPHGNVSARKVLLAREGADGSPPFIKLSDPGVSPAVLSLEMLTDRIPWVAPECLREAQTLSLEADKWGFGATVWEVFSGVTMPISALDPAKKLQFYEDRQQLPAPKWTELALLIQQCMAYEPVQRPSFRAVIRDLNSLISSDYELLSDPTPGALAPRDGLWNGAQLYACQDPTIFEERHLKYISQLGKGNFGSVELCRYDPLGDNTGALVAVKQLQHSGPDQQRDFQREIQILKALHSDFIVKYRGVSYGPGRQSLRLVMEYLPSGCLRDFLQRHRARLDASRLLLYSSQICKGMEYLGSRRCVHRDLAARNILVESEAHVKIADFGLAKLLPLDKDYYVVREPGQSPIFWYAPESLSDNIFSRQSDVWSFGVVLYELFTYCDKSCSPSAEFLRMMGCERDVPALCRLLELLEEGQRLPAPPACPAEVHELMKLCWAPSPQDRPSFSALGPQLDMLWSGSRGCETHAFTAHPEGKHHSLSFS
Procedure: In vitro activity of compounds of the present invention for inhibiting JAK3 kinase was determined by the following method.

[1] = test system: human erythroid leukemia cell line TF-1; assay: Proliferation inhibition assay on TF-1 cells mediated by IL-4; type: cell-based; settings: 10 ng/mL IL-4, 72 hours
Description: The following in vitro assay is to determine the activity of the compounds of the present invention for inhibiting the proliferation of human erythroid leukemia cell line TF-1.
The activity is represented by the IC50 value, which can not only reflect the activity of a test compound for inhibiting JAK2 and JAK3 kinase, but can also reflect the selectivity of a test compound for JAK2 and JAK3 kinase.
The general procedures of the assay are given as follows: first, the TF-1 cells (purchased from ATCC, Catalog number: CRL 2003) were seeded in a 96-well cell culture plate at a suitable cell concentration (8000 cells/mL medium), and 10 ng/mL IL-4 (Invitrogen, Catalog Number: PHC0044) were added to each well. Then 10× serial concentration gradient of test compounds solutions (10000, 1000, 100, 10, 1 and 0.1 nM) were prepared, and then the 10× compound solutions prepared above were added to the 96-well cell culture plate containing IL-4. After the cell plates were cultured continuously for 72 hours, the activity of the test compounds for inhibiting the cell proliferation was determined by using a Cell Counting Kit-8 (purchased from Dojindo, Catalog Number: CK04). IC50 values were calculated from the data of the inhibition rates at various concentrations of the test compounds.

JAK2 kinase = JAK2 kinase (Homo sapiens, UniProt O60674); assay: Assay for inhibiting JAK2 kinase (in vitro kinase assay); type: biochemical; settings: 20 μM ATP; read-out: IC50 (JAK2/Bio)
JAK2 kinase, sequence (O60674 whole entry, looked up): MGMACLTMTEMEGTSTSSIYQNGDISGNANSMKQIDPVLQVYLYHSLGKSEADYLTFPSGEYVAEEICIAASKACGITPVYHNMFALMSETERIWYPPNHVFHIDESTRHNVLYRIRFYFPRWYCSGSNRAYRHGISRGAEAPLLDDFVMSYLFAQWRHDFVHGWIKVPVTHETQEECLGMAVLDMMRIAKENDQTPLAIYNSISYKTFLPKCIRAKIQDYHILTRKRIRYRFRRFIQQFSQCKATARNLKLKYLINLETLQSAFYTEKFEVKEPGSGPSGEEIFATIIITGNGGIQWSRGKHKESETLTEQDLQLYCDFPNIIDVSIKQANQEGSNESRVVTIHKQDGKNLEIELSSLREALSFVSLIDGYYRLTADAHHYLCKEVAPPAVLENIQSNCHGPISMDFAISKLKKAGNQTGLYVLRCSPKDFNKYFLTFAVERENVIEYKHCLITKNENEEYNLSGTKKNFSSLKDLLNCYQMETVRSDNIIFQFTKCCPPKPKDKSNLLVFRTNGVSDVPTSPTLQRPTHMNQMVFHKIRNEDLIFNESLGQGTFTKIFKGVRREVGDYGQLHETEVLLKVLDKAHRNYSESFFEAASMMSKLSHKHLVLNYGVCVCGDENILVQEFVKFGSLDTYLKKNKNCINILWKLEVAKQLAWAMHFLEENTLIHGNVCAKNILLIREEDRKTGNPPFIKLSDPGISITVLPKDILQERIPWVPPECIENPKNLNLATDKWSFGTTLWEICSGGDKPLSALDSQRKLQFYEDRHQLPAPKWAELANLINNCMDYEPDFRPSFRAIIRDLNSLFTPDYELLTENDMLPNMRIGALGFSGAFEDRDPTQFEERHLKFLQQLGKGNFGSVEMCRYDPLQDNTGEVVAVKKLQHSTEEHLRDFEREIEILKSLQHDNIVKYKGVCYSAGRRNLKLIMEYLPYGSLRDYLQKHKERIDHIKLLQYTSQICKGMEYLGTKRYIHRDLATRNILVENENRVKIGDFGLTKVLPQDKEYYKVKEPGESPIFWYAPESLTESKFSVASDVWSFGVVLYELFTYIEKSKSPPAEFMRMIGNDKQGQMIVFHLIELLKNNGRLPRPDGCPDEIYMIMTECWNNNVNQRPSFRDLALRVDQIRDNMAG
Procedure: In vitro activity of compounds of the present invention for inhibiting JAK2 kinase was determined by the following method.

[2] = Pharmacokinetics assay in rats, intragastric administration; type: in vivo, Sprague-Dawley (SD) rats; settings: SD rats, 10 mg/kg
Procedure: Rats were used as test animals. […] The pharmacokinetic behavior of the compounds of the present invention was studied and evaluated in rats.
56 Healthy adult Sprague-Dawley (SD) rats, half male and half female, purchased from SINO-BRITSH SIPPR/BK LAB.
The appropriate amount of test compounds were weighed and mixed with 1.0 mL of dimethyl sulfoxide to prepare a 1.0 mg/mL suspension.
After an overnight fast, SD rats were administered intragastrically at a dose of 10.0 mg/kg and an administration volume of 10 mL/kg.
The plasma samples were stored at −20° C. The rats were fed 2 hours after administration.
Content determination of the test compounds in rat plasma after intragastrically administering at different concentrations: 50 μL of rat plasmas taken at various time points after administration were mixed with 50 μL of internal standard solution and 100 μL of methanol and mixed for 3 minutes by a vortexer. The mixture was centrifuged for 10 minutes at 13,500 rpm. 10 μL of the supernatant was taken from the plasma sample and analyzed by LC-MS/MS.

| Compound | IC50 [1] [µM] | IC50 (T cells; 72 h) [µM] | IC50 (T cells; 72 hours) [µM] | further results |
| --- | --- | --- | --- | --- |
| CN(c1ncnc2[nH]ccc12)[C@H]1C[C@@H]2CN(C(=O)Nc3nc(OCC(C)(C)O)ns3)C[C@@H]2C1 [Example 99] |  | 0.054 |  | IC50 (JAK1 kinase): 0.0003 µM; IC50 (JAK3 kinase): 0.11 µM; IC50 ([1]; TF-1, 72 h): 0.044 µM; IC50 (JAK2 kinase): 0.005 µM |
| C[C@H](O)C(=O)N1C[C@H]2C[C@H](N(C)c3ncnc4[nH]ccc34)C[C@H]2C1 [Example 17, (S)-2-Hydroxy-1-((3aR,5R,6aS)-5-(methyl(7H-pyrrolo[2,3-d]pyrimidin-4-yl)amino)hexahydrocyclopenta[c]pyrrol-2(1H)-yl)propan-1-one] | 0.165 | 0.029 |  | Half-Life t½ [2]: 2.03 ± 0.82 h |
| CN(c1ccnc2[nH]ccc12)[C@H]1C[C@@H]2CN(C(=O)CO)C[C@@H]2C1 [Example 112, 2-hydroxy-1-((3aR,5S,6aS)-5-(methyl(1H-pyrrolo[2,3-b]pyridin-4-yl)amino)hexahydrocyclopenta[c]pyrrol-2(1H)-yl) ethanone] |  |  |  | IC50 (JAK1 kinase): 0.096 µM |
| CCc1nsc(NC(=O)N2C[C@H]3C[C@H](N(C)c4ncnc5[nH]ccc45)C[C@H]3C2)n1 [Example 48, (3aR,5S,6aS)—N-(3-Ethyl-1,2,4-thiadiazol-5-yl)-5-(methyl(7H-pyrrolo[2,3-d]pyrimidin-4-yl)amino)hexahydrocyclopenta[c]pyrrole-2(1H)-carboxamide] | 0.027 | 0.023 |  | Half-Life t½ [2]: 2.43 ± 0.75 h |
| CN(c1ncnc2[nH]cc(F)c12)[C@H]1C[C@@H]2CN(C(=O)CO)C[C@@H]2C1 [Example 128, 1-((3aR,5S,6aS)-5-((5-fluoro-7H-pyrrolo[2,3-d]pyrimidin-4-yl) (methyl)amino)hexahydrocyclopenta[c]pyrrol-2(1H)-yl)-2-hydroxyethanone] |  | 0.167 |  | IC50 ([1]; TF-1, 72 h): 0.252 µM |
| CC(=O)N1C[C@H]2C[C@H](N(C)c3ncnc4[nH]ccc34)C[C@H]2C1 [Example 11, 1-((3aR,5S,6aS)-5-(Methyl(7H-pyrrolo[2,3-d]pyrimidin-4-yl)amino)hexahydrocyclopenta[c]pyrrol-2(1H)-yl)ethanone] | 0.507 |  | 0.705 |  |
| CN(c1ncnc2[nH]ccc12)[C@H]1C[C@@H]2CN(C(=O)CC#N)C[C@@H]2C1 [Example 8, 3-((3 aR,5S,6aS)-5-(Methyl(7H-pyrrolo[2,3-d]pyrimidin-4-yl)amino)hexahydrocyclopenta[c]pyrrol-2(1H)-yl)-3-oxopropanenitrile] | 0.53 |  | 0.46 |  |
| CN(c1ncnc2[nH]ccc12)[C@H]1C[C@@H]2CN(C(=O)CO)C[C@@H]2C1 [Example 6, 2-Hydroxy-1-((3aR,5S,6aS)-5-(methyl(7H-pyrrolo[2,3-d]pyrimidin-4-yl)amino)hexahydrocyclopenta[c]pyrrol-2(1H)-yl)ethanone] |  | 0.414 |  | IC50 ([1]; TF-1, 72 h): 0.457 µM |
| COc1nsc(NC(=O)N2C[C@H]3C[C@H](N(C)c4ncnc5[nH]ccc45)C[C@H]3C2)n1 [Example 34, (3aR,5S,6aS)—N-(3-Methoxy-1,2,4-thiadiazol-5-yl)-5-(methyl(7H-pyrrolo[2,3-d]pyrimidin-4-yl)amino)hexahydrocyclopenta[c]pyrrole-2(1H)-carboxamide] | 0.044 | 0.054 |  | Half-Life t½ [2]: 2.10 ± 0.73 h |

More lines, main results first:

| IC50 [1] [µM] | Compound | IC50 (T cells; 72 h) [µM] | IC50 (T cells; 72 hours) [µM] | further results |
| --- | --- | --- | --- | --- |
| 0.16 | COc1nsc(NC(=O)N2CC[C@H]3CC(N(C)c4ncnc5[nH]ccc45)C[C@H]3C2)n1 (stereo partly drawn) [Example 38, (4aS,7aR)—N-(3-Methoxy-1,2,4-thiadiazol-5-yl)-6-(methyl(7H-pyrrolo[2,3-d]pyrimidin-4-yl)amino)hexahydro-1H-cyclopenta[c]pyridine-2(3H)-carboxamide] |  | 0.071 |  |
| 0.691 | CN(c1ncnc2[nH]ccc12)[C@H]1C[C@@H]2CN(C(=O)Nc3nncs3)C[C@@H]2C1 [Example 86, (3aR,5S,6aS)-5-(methyl(7H-pyrrolo[2,3-d]pyrimidin-4-yl)amino)-N-(1,3,4-thiadiazol-2-yl)hexahydrocyclopenta[c] pyrrole-2(1H)-carboxamide] |  | 0.13 |  |
| 0.123 | CN(c1ncnc2[nH]ccc12)C1C[C@@H]2CCN(C(=O)CO)C[C@@H]2C1 (stereo partly drawn) [Example 37, 2-Hydroxy-1-((4aS,7aR)-6-(methyl(7H-pyrrolo[2,3-d]pyrimidin-4-yl)amino)hexahydro-1H-cyclopenta[c]pyridin-2(3H,4H,4aH,5H,6H,7H,7aH)-yl)ethanone] |  | 0.453 |  |
